# According to article PMC7079210 (Chembiochem, 2019):
# Target: PhdB (phenylacetate decarboxylase), sewage culture version (uncultured Acidobacteriota bacterium, UniProt A0A2P1UAH0)
# Assay type: biochemical
# PhdB (phenylacetate decarboxylase), sewage culture version, sequence (A0A2P1UAH0 1-839): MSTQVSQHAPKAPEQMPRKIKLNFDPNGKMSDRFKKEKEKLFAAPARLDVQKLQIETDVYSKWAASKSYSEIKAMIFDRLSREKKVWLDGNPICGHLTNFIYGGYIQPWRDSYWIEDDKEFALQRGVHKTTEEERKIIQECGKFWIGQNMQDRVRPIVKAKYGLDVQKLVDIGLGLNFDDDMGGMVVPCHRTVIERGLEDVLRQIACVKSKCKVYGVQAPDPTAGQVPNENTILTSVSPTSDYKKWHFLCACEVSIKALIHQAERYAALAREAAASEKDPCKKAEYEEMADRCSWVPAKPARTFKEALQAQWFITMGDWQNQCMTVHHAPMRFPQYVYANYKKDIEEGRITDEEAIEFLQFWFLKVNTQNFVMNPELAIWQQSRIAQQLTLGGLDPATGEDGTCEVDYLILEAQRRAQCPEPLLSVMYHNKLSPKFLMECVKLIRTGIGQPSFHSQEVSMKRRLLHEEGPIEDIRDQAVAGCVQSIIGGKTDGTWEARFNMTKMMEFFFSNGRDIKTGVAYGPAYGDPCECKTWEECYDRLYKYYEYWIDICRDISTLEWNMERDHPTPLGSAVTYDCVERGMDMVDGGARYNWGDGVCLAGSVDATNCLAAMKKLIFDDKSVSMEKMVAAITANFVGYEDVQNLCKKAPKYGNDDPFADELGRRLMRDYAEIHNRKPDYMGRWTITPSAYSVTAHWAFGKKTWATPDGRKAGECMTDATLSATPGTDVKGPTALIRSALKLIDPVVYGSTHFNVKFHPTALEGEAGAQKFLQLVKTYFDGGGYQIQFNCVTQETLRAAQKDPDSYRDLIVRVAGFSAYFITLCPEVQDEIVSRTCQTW
compound,measurement,value
"O=C(O)C(F)(F)c1ccccc1 [α,α‐difluorophenylacetate]",Ki,370 ± 30 µM
